*1 amine or outer side, *2 acyl side, *3 side chain or, on linkers, in order; H or OH if unused. Where a SMILES comes first, the peptide text is derived from it. Bridges are numbered along the chain shown (N, C = ends). [ ]: non-standard residue; d: D form. ξ: configuration not given here. Phe(3,4,5-F3) = N[C@@H](Cc1cc(F)c(F)c(F)c1)C(=O)O; d(cisHyp) = O=C(O)[C@H]1C[C@@H](O)CN1; Phe(2-F) = N[C@@H](Cc1ccccc1F)C(=O)O; Hyp = O=C(O)[C@@H]1C[C@@H](O)CN1; NMeF = CN[C@@H](Cc1ccccc1)C(=O)O; X1 = O=C([C@H]1COCCN1[*:1])[*:2]; NMeNle = CCCC[C@H](NC)C(=O)O; hSer = N[C@@H](CCO)C(=O)O; NMeA = CN[C@@H](C)C(=O)O; Orn = NCCC[C@H](N)C(=O)O; Dab = NCC[C@H](N)C(=O)O; Dap = NC[C@H](N)C(=O)O; ξC = NC(CS)C(=O)O; Sar = CNCC(=O)O
Target: T1, Human PD-L1/PD-1 (Homo sapiens, UniProt Q9NZQ7)
T1 construct: TVMV protease cleavage site (C); made in house; host or cells: HEK293T cells
Experiment: HTRF Human PD-L1/PD-1 binding assay (PD-1-Ig/PD-L1-His)
Conditions: PD-L1-His 10 nM, PD-1-Ig 20 nM; class symbol; read-out: HTRF Human PD-L1/PD-1 Binding Assay IC50 Range
In short: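 HTRF read-out (665/620 nm ratio) after 30 min equilibration with Eu-cryptate anti-Ig mAb (1 nM) and APC anti-His mAb (20 nM). Peptides preincubated 15 min with PD-L1-His (10 nM), then PD-1-Ig (20 nM) added for 15 min.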

T1 sequence (Q9NZQ7 with tags, fused parts or gaps): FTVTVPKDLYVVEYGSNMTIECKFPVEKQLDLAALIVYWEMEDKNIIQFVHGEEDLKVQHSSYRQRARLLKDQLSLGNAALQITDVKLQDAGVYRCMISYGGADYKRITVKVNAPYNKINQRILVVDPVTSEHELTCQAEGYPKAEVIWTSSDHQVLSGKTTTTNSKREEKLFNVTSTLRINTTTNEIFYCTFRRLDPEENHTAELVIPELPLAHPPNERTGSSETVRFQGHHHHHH

Compound | IC50 [nM]
CCCC[C@H]1C(=O)N2C[C@H](O)C[C@@H]2C(=O)N[C@@H](CC(=O)O)C(=O)N[C@@H](C(C)C)C(=O)N(C)[C@@H](Cc2ccccc2)C(=O)N[C@@H](CCOC)C(=O)N2CCOC[C@@H]2C(=O)N[C@@H](Cc2c[nH]c3ccccc23)C(=O)N[C@@H](Cc2ccc(O)cc2)C(=O)N[C@@H](CC(C)C)C(=O)N[C@H](C(=O)NCC(N)=O)CSCC(=O)N[C@@H](Cc2cc(F)c(F)c(F)c2)C(=O)N(C)[C@@H](Cc2ccccc2)C(=O)N1C [Example 10194] ({CH2CO}-[Phe(3,4,5-F3)][NMeF][NMeNle][d(cisHyp)]DV[NMeF][hSer](Me)[X1]WYLCG-NH2; thioether N-13) | 10 to 99.9
CCCC[C@H]1C(=O)N2C[C@H](O)C[C@@H]2C(=O)N[C@@H](CC(=O)O)C(=O)N[C@@H](C(C)C)C(=O)N(C)[C@@H](Cc2ccccc2)C(=O)N[C@@H](Cc2ccc(O)cc2)C(=O)N2CCOC[C@@H]2C(=O)N[C@@H](Cc2c[nH]c3ccccc23)C(=O)N[C@@H](Cc2ccccc2F)C(=O)N[C@@H](CC(C)C)C(=O)N[C@H](C(=O)NCC(N)=O)CSCC(=O)N[C@@H](Cc2cc(F)c(F)c(F)c2)C(=O)N(C)[C@@H](Cc2ccccc2)C(=O)N1C [Example 10195] ({CH2CO}-[Phe(3,4,5-F3)][NMeF][NMeNle][d(cisHyp)]DV[NMeF]Y[X1]W[Phe(2-F)]LCG-NH2; thioether N-13) | 1 to 9.9
CCCC[C@H]1C(=O)N[C@@H](CC(N)=O)C(=O)N2CCC[C@H]2CN[C@@H](CO)C(=O)N[C@@H](CCO)C(=O)N2CCC[C@H]2C(=O)N[C@@H](Cc2c[nH]c3ccccc23)C(=O)N[C@@H](CN)C(=O)N[C@@H](Cc2c[nH]c3ccccc23)C(=O)N(C)[C@@H](C)C(=O)N(C)[C@@H](C)C(=O)N[C@@H](CCCNC(=N)N)C(=O)NC(C(=O)NCC(N)=O)CSCC(=O)N[C@@H](Cc2ccc(O)cc2)C(=O)N1C (stereo partly shown) [Example 10196] | 1000 to 10000
CCCC[C@H]1C(=O)N[C@@H](CC(N)=O)C(=O)N2CCC[C@H]2CN[C@@H](CO)C(=O)N[C@@H](CCO)C(=O)N2CCC[C@H]2C(=O)N[C@@H](Cc2c[nH]c3ccccc23)C(=O)N[C@@H](CCN)C(=O)N[C@@H](Cc2c[nH]c3ccccc23)C(=O)N(C)[C@@H](C)C(=O)N(C)[C@@H](C)C(=O)N[C@@H](CCCNC(=N)N)C(=O)NC(C(=O)NCC(N)=O)CSCC(=O)N[C@@H](Cc2ccc(O)cc2)C(=O)N1C (stereo partly shown) [Example 10197] | 1000 to 10000
CCCC[C@H]1C(=O)N[C@@H](CC(N)=O)C(=O)N2CCC[C@H]2C(=O)N[C@@H](CO)C(=O)N[C@@H](CCO)C(=O)N2CCC[C@H]2C(=O)N[C@@H](Cc2c[nH]c3ccccc23)C(=O)N[C@@H](CCCN)C(=O)N[C@@H](Cc2c[nH]c3ccccc23)C(=O)N(C)[C@@H](C)C(=O)N(C)[C@@H](C)C(=O)N[C@@H](CCCNC(=N)N)C(=O)NC(C(=O)NCC(N)=O)CSCC(=O)N[C@@H](Cc2ccc(O)cc2)C(=O)N1C (stereo partly shown) [Example 10198] ({CH2CO}-Y[NMeNle]NPS[hSer]PW[Orn]W[NMeA][NMeA]R[ξC]G-NH2; thioether N-14) | 1000 to 10000
CCCC[C@H]1C(=O)N[C@@H](CC(N)=O)C(=O)N2CCC[C@H]2C(=O)N[C@@H](CO)C(=O)N[C@@H](CCO)C(=O)N2CCC[C@H]2C(=O)N[C@@H](Cc2c[nH]c3ccccc23)C(=O)N[C@@H](CN)C(=O)N[C@@H](Cc2c[nH]c3ccccc23)C(=O)N(C)[C@@H](C)C(=O)N(C)[C@@H](C)C(=O)N[C@@H](CCCNC(=N)N)C(=O)NC(C(=O)NCC(N)=O)CSCC(=O)N[C@@H](Cc2ccc(O)cc2)C(=O)N1C (stereo partly shown) [Example 10202] ({CH2CO}-Y[NMeNle]NPS[hSer]PW[Dap]W[NMeA][NMeA]R[ξC]G-NH2; thioether N-14) | 1000 to 10000
CCCC[C@H]1C(=O)N[C@@H](CC(N)=O)C(=O)N2CCC[C@H]2C(=O)N[C@@H](CO)C(=O)N[C@@H](CCO)C(=O)N2CCC[C@H]2C(=O)N[C@@H](Cc2c[nH]c3ccccc23)C(=O)N[C@@H](CCCN)C(=O)N[C@@H](Cc2c[nH]c3ccccc23)C(=O)N(C)[C@@H](C)C(=O)N(C)CC(=O)N[C@@H](CCCNC(=N)N)C(=O)NC(C(=O)NCC(N)=O)CSCC(=O)N[C@@H](Cc2ccc(O)cc2)C(=O)N1C (stereo partly shown) [Example 10204] ({CH2CO}-Y[NMeNle]NPS[hSer]PW[Orn]W[NMeA][Sar]R[ξC]G-NH2; thioether N-14) | 1000 to 10000
CCCC[C@H]1C(=O)N[C@@H](CC(N)=O)C(=O)N2CCC[C@H]2C(=O)N[C@@H](CO)C(=O)N[C@@H](CCO)C(=O)N2C[C@H](O)C[C@H]2C(=O)N[C@@H](Cc2c[nH]c3ccccc23)C(=O)N[C@@H](CCN)C(=O)N[C@@H](Cc2c[nH]c3ccccc23)C(=O)N(C)[C@@H](C)C(=O)N(C)CC(=O)N[C@@H](CCCNC(=N)N)C(=O)NC(C(=O)NCC(N)=O)CSCC(=O)N[C@@H](Cc2ccc(O)cc2)C(=O)N1C (stereo partly shown) [Example 10206] ({CH2CO}-Y[NMeNle]NPS[hSer][Hyp]W[Dab]W[NMeA][Sar]R[ξC]G-NH2; thioether N-14) | 1000 to 10000
CCCC[C@H]1C(=O)N[C@@H](CC(N)=O)C(=O)N2CCC[C@H]2C(=O)N[C@@H](CO)C(=O)N[C@@H](CCO)C(=O)N2C[C@H](O)C[C@H]2C(=O)N[C@@H](Cc2c[nH]c3ccccc23)C(=O)N[C@@H](CCCN)C(=O)N[C@@H](Cc2c[nH]c3ccccc23)C(=O)N(C)[C@@H](C)C(=O)N(C)CC(=O)N[C@@H](CCCNC(=N)N)C(=O)NC(C(=O)NCC(N)=O)CSCC(=O)N[C@@H](Cc2ccc(O)cc2)C(=O)N1C (stereo partly shown) [Example 10207] ({CH2CO}-Y[NMeNle]NPS[hSer][Hyp]W[Orn]W[NMeA][Sar]R[ξC]G-NH2; thioether N-14) | 1000 to 10000

Other lines, results leading:

IC50 [nM] | Compound
10 to 99.9 | CCCC[C@H]1C(=O)N2CCOC[C@@H]2C(=O)N[C@@H](CC(=O)O)C(=O)N[C@@H](C(C)C)C(=O)N(C)[C@@H](Cc2ccccc2)C(=O)N[C@@H](CCC(=O)O)C(=O)N2CCC[C@@H]2C(=O)N[C@@H](Cc2c[nH]c3ccccc23)C(=O)N[C@@H](Cc2ccc(O)cc2)C(=O)N[C@@H](CCOC)C(=O)N[C@H](C(=O)NCC(N)=O)CSCC(=O)N[C@@H](Cc2cc(F)c(F)c(F)c2)C(=O)N(C)[C@@H](Cc2ccccc2)C(=O)N1C [Example 10192] ({CH2CO}-[Phe(3,4,5-F3)][NMeF][NMeNle][X1]DV[NMeF]E[dP]WY[hSer](Me)CG-NH2; thioether N-13)
1 to 9.9 | CCCC[C@H]1C(=O)N2C[C@H](O)C[C@@H]2C(=O)N[C@@H](CC(=O)O)C(=O)N[C@@H](C(C)C)C(=O)N(C)[C@@H](Cc2ccccc2)C(=O)N[C@@H](CCC(=O)O)C(=O)N2CCC[C@@H]2C(=O)N[C@@H](Cc2c[nH]c3ccccc23)C(=O)N[C@@H](Cc2ccc(O)cc2)C(=O)N[C@@H](CCOC)C(=O)N[C@H](C(=O)NCC(N)=O)CSCC(=O)N[C@@H](Cc2cc(F)c(F)c(F)c2)C(=O)N(C)[C@@H](Cc2ccccc2)C(=O)N1C [Example 10193] ({CH2CO}-[Phe(3,4,5-F3)][NMeF][NMeNle][d(cisHyp)]DV[NMeF]E[dP]WY[hSer](Me)CG-NH2; thioether N-13)
1000 to 10000 | CCCC[C@H]1C(=O)N[C@@H](CC(N)=O)C(=O)N2CCC[C@H]2C(=O)N[C@@H](CO)C(=O)N[C@@H](CCO)C(=O)N2C[C@H](O)C[C@H]2C(=O)N[C@@H](Cc2c[nH]c3ccccc23)C(=O)N[C@@H](CN)C(=O)N[C@@H](Cc2c[nH]c3ccccc23)C(=O)N(C)[C@@H](C)C(=O)N(C)[C@@H](C)C(=O)N[C@@H](CCCNC(=N)N)C(=O)NC(C(=O)NCC(N)=O)CSCC(=O)N[C@@H](Cc2ccc(O)cc2)C(=O)N1C (stereo partly shown) [Example 10199] ({CH2CO}-Y[NMeNle]NPS[hSer][Hyp]W[Dap]W[NMeA][NMeA]R[ξC]G-NH2; thioether N-14)
1000 to 10000 | CCCC[C@H]1C(=O)N[C@@H](CC(N)=O)C(=O)N2CCC[C@H]2C(=O)N[C@@H](CO)C(=O)N[C@@H](CCO)C(=O)N2C[C@H](O)C[C@H]2C(=O)N[C@@H](Cc2c[nH]c3ccccc23)C(=O)N[C@@H](CCN)C(=O)N[C@@H](Cc2c[nH]c3ccccc23)C(=O)N(C)[C@@H](C)C(=O)N(C)[C@@H](C)C(=O)N[C@@H](CCCNC(=N)N)C(=O)NC(C(=O)NCC(N)=O)CSCC(=O)N[C@@H](Cc2ccc(O)cc2)C(=O)N1C (stereo partly shown) [Example 10200] ({CH2CO}-Y[NMeNle]NPS[hSer][Hyp]W[Dab]W[NMeA][NMeA]R[ξC]G-NH2; thioether N-14)
1000 to 10000 | CCCC[C@H]1C(=O)N[C@@H](CC(N)=O)C(=O)N2CCC[C@H]2C(=O)N[C@@H](CO)C(=O)N[C@@H](CCO)C(=O)N2C[C@H](O)C[C@H]2C(=O)N[C@@H](Cc2c[nH]c3ccccc23)C(=O)N[C@@H](CCCN)C(=O)N[C@@H](Cc2c[nH]c3ccccc23)C(=O)N(C)[C@@H](C)C(=O)N(C)[C@@H](C)C(=O)N[C@@H](CCCNC(=N)N)C(=O)NC(C(=O)NCC(N)=O)CSCC(=O)N[C@@H](Cc2ccc(O)cc2)C(=O)N1C (stereo partly shown) [Example 10201] ({CH2CO}-Y[NMeNle]NPS[hSer][Hyp]W[Orn]W[NMeA][NMeA]R[ξC]G-NH2; thioether N-14)
1000 to 10000 | CCCC[C@H]1C(=O)N[C@@H](CC(N)=O)C(=O)N2CCC[C@H]2C(=O)N[C@@H](CO)C(=O)N[C@@H](CCO)C(=O)N2CCC[C@H]2C(=O)N[C@@H](Cc2c[nH]c3ccccc23)C(=O)N[C@@H](CCN)C(=O)N[C@@H](Cc2c[nH]c3ccccc23)C(=O)N(C)[C@@H](C)C(=O)N(C)[C@@H](C)C(=O)N[C@@H](CCCNC(=N)N)C(=O)NC(C(=O)NCC(N)=O)CSCC(=O)N[C@@H](Cc2ccc(O)cc2)C(=O)N1C (stereo partly shown) [Example 10203] ({CH2CO}-Y[NMeNle]NPS[hSer]PW[Dab]W[NMeA][NMeA]R[ξC]G-NH2; thioether N-14)
1000 to 10000 | CCCC[C@H]1C(=O)N[C@@H](CC(N)=O)C(=O)N2CCC[C@H]2C(=O)N[C@@H](CO)C(=O)N[C@@H](CCO)C(=O)N2C[C@H](O)C[C@H]2C(=O)N[C@@H](Cc2c[nH]c3ccccc23)C(=O)N[C@@H](CN)C(=O)N[C@@H](Cc2c[nH]c3ccccc23)C(=O)N(C)[C@@H](C)C(=O)N(C)CC(=O)N[C@@H](CCCNC(=N)N)C(=O)NC(C(=O)NCC(N)=O)CSCC(=O)N[C@@H](Cc2ccc(O)cc2)C(=O)N1C (stereo partly shown) [Example 10205] ({CH2CO}-Y[NMeNle]NPS[hSer][Hyp]W[Dap]W[NMeA][Sar]R[ξC]G-NH2; thioether N-14)

— patent publication US10538555B2, “Macrocyclic inhibitors of the PD-1/PD-L1 and CD80(B7-1)/PD-L1 protein/protein interactions” (BRISTOL-MYERS SQUIBB COMPANY, priority 2014, dated 2020)
